Assay results reported in patent US9595012B2, “Method for improving the environmental impact of formulated products” (Johnson & Johnson Consumer Inc., priority 2010, dated 2017).

What was measured:
aquatic organisms = assay: Overall toxicity scoring (minimum organism-specific toxicity score); settings: scale 0-100; minimum of the organism-specific scores
Method: Using the linear scoring scale in Table 5 (below), each of the three organism L(E)C50 values (i.e., LC50 or EC50 values) are transformed to an organism-specific toxicity score for the ingredient. If the organism-specific toxicity score is based on an estimated L(E)C50 value rather than an empirical L(E)C50 value, that score is reduced by an uncertainty penalty (e.g., 5 points).
The overall ingredient toxicity score is determined as the minimum organism-specific toxicity score. If no score could be determined for one class of aquatic indicator organism (i.e., primary producer, primary consumer, secondary consumer), the overall ingredient toxicity score is reduced by an uncertainty penalty (e.g., 5 points). If no score could be determined for two classes of aquatic indicator organisms, the overall ingredient score is reduced by a larger uncertainty penalty (e.g., 10 points).
The process used for ingredients that are organic compounds is also used for ingredients that are inorganic compounds with the following exceptions: (1) only empirical data are considered, as models for predicting the aquatic toxicity of metals are not widely available; (2) the toxicity of the ingredient and all plausible environmental degradants are calculated. The lowest Toxicity score among the ingredient and its plausible environmental degradants is assigned as the final Toxicity score for the ingredient.

water flea [1] = assay: Acute aquatic toxicity, invertebrate/primary consumer, 50% immobilization; settings: scale 0-100, from EC50 by Table 5
algae [2] = settings: 50% inhibition in growth rate, empirical acute study; cited from earlier work
fish [3] = settings: 50% lethality, empirical acute study; cited from earlier work
fish [4] = assay: Acute aquatic toxicity, vertebrate/secondary consumer, 50% lethality; settings: scale 0-100, from LC50 by Table 5
algae [5] = assay: Acute aquatic toxicity, aquatic plant/primary producer, 50% inhibition in growth rate; settings: scale 0-100, from EC50 by Table 5
water flea [6] = settings: 50% immobilization, empirical acute study; cited from earlier work

Compound: OCC(O)CO [Glycerin]
- Toxicity score (aquatic organisms): 100
- Invertebrate toxicity score (water flea [1]): 100
- Aquatic Plant EC50 (algae [2]): 46,000 mg/L
- Fish LC50 (fish [3]): 5,000 mg/L
- Fish toxicity score (fish [4]): 100
- Aquatic Plant toxicity score (algae [5]): 100
- Invertebrate EC50 (water flea [6]): 10,000 mg/L

Compound: [Zn+2] [Zn^2+]
- Toxicity score (aquatic organisms): zero

Compound: [O]=[Zn] [zinc oxide]
- Toxicity score (aquatic organisms): zero
